{
  "source": "patent US4442093A",
  "about": "“Method for administering 24,25-dihydroxycholecalciferol to persons suffering from hypercalcemia” (Kureha Kagaku Kogyo Kabushiki Kaisha, priority 1981, dated 1984)",
  "key": {"[1]": {"test_system": "inorganic phosphate in serum", "experiment": "Serum inorganic phosphate in rats given puromycin aminonucleoside (Example 19)", "assay_type": "in vivo, male Wistar rats", "conditions": "hyperphosphatemia due to puromycin-amino-nucleoside", "protocol": "Puromycin aminonucleoside (hereinafter abbreviated as AN) was dissolved in physiological saline solution to be the concentration of 15 mg of AN/ml.\nThe thus prepared solution was subcutaneously administered to […] in 9th to 10th week after birth divided equally into 3 groups once a day for continuous 5 days at a daily dose rate of 15 mg/kg body weight, and the administration of AN was suspended for the next 2 weeks. This cycle of 5 days of administration followed by 2 weeks of suspension of administration was repeated 5 times, and from the commencement of the 4th cycle, drinking water was substituted by one of the compositions for oral administration prepared in Example 18, namely, Composition A or Composition B to be taken ad lib by each one of the three groups of the rats for 38 days therefrom. […] As control, a group consisting of 8 male Wistar rats was used without giving AN and with the oral administration of aqueous 0.1% by weight isopropyl alcohol solution taken ad lib during the same 38 days as above. As comparative example, another group consisting of 8 male Wistar rats was used with the same administration of AN as in the test groups and with the oral administration of aqueous 0.1% by weight isopropyl alcohol taken ad lib as in the control group."}, "[2]": {"test_system": "lymphocytes from a healthy person", "experiment": "Effect of plasma of treated renal failure/uremia patients on blastoid-transformation of lymphocytes from a healthy person (Example 14)", "assay_type": "cell-based, human", "conditions": "0.5 to 1.0 µg/day oral, 1 to 6 months", "excerpt": "Effects of plasma derived from a patient suffering from chronic renal failure or uremia treated with the present compound or not treated therewith on blastoid-transformation of lymphocytes from a healthy person Heparinized fresh peripheral blood of a normal person was mixed with Ficoll-Paque solution, and after subjecting the mixture to ultracentrifugal separation, the layer of lymphocyte was collected, and after washing the layer three times with phosphate buffer solution, the washed lymphocytes were dispersed in suspension in RPMI-1640 culture medium (liquid) at a concentration of 6×10^5 cells/ml. […] Then, the specimen was harvested to determine the uptake of ^3 H-TdR by the lymphocytes. In addition, the plasma of each patient was collected two times, namely, once before hemodialysis and once after hemodialysis, and accordingly the total patient system of the present test consists of two large groups one of which is administered and the other of which is not administered with the compound, and each large group consists of two groups one of which is not yet hemodialysed and the other of which has been already hemodialysed."}, "blood sugar level": {"test_system": "blood sugar level", "experiment": "Blood sugar in patients (Example 23)", "assay_type": "in vivo, human", "protocol": "Three patients shown in Table 17 were treated by oral administration of a daily dose of 4 to 6 micrograms of 24R,25-(OH)2 -D3 in a form of the soft capsule composition obtained in Example 6 for 3 continuous weeks. After the completion of administration, the patient was fasted for a night and their blood specimen was collected at 11:00 a.m. in the next morning.\nEffectiveness of reducing blood sugar level (ERBS) is calculated from the […]"}, "calcium level in serum [3]": {"test_system": "calcium level in serum", "experiment": "Serum calcium in rats made hypercalcemic with parathyroid hormone (Example 3)", "assay_type": "in vivo, male Wistar rats", "conditions": "50 µg/kg i.p., PTH-treated", "protocol": "To 4 subgroups of male Wistar rats of 150±40 g of body weight (a subgroup consisting of 5 animals), parathyroid hormone (PTH, Sigma Bovine parathyroid TCA powder, 134 USPU/mg) dissolved in a physiological saline solution containing 4% by weight of gelatine was subcutaneously injected at a dose rate of 150 USPU/100 g body weight, the volume injected being 0.4 ml/100 g body weight to prepare the rats artificially suffering from hypercalcemia.\nThe rats of the second group, after one hour of the administration of the parathroid hormone, were intraperitoneally administered only with ethanol, and treated as in the first group for taking the blood specimen."}, "magnesium level in serum": {"test_system": "magnesium level in serum", "experiment": "Serum magnesium in hypermagnesemic chronic renal failure patients (Example 17)", "assay_type": "in vivo, human", "conditions": "for Magnesium level in serum after administration: 10 days; for Magnesium level in serum before administration: baseline", "protocol": "To the three patients of chronic renal failure showing the hypermagnesemic symptoms of nearly the same extent to each other, 24R,25-(OH)2 -D3 was orally administered in a form of soft capsule composition prepared in Example 6 at a daily dose of 2 to 5 micrograms for continuous 10 days. Magnesium level in their serum was determined before and after the administration following the ordinary method."}, "calcium level in serum [4]": {"test_system": "calcium level in serum", "experiment": "Serum calcium in rats transplanted with Walker-carcinosarcoma 256 (Example 5)", "assay_type": "in vivo, Sprague-Dawley rat", "protocol": "After injecting 0.5 ml of ascites of Walker-carcinosarcoma 256 adjusted to contain 2×10^6 tumour cells per microliter into the upper part of the right thigh of a Sprague-Dawley rat of body weight of 90-140 g, a solution of 24R,25-(OH)2 -D3 in the triglyceride ester used in Example 1 at a concentration of 0.5 microgram/100 microliter was orally administered once a day for continuous 7 days at a daily dose rate of 20 micrograms of 24R,25-(OH)2 -D3 per kg body weight of the rat. […] The blood specimen was also collected in the same manner from a rat of the same strain injected with the ascites in the same manner as in the first rat, however, only administered with the triglyceride ester. The two levels of calcium in the respective sera of the two groups were compared in Table 5."}, "[5]": {"conditions": "average of 3 patients, 4 to 6 µg/day oral, 3 weeks"}, "[6]": {"conditions": "person fourteen, 4 µg/day oral, 3 weeks"}, "[7]": {"conditions": "person nineteen, 6 µg/day oral, 3 weeks"}, "[8]": {"conditions": "person seven, 6 µg/day oral, 3 weeks"}},
  "data": [
    {"smiles": "C=C1CC[C@H](O)C/C1=C/C=C1\\CCC[C@]2(C)[C@@H]([C@H](C)CC[C@@H](O)C(C)(C)O)CC[C@@H]12", "note": "[24R,25-(OH)2 -D3]", "values": [
      {"measurement": "inorganic phosphate level in serum", "setting": "[1]", "value": "significant reduction of the inorganic phosphate level"},
      {"measurement": "Uptake of 3H-TdR in the presence of lectin from kidney beans", "setting": "[2]; after hemodialysis", "value": "222480 ± 21253", "unit": "cpm"},
      {"measurement": "Uptake of 3H-TdR in the presence of lipopolysaccharide", "setting": "[2]; after hemodialysis", "value": "129984 ± 51385", "unit": "cpm"},
      {"measurement": "Uptake of 3H-TdR in the presence of lectin from kidney beans", "setting": "[2]; before hemodialysis", "value": "228906 ± 19081", "unit": "cpm"},
      {"measurement": "Uptake of 3H-TdR in the presence of lipopolysaccharide", "setting": "[2]; before hemodialysis", "value": "158950 ± 48245", "unit": "cpm"},
      {"measurement": "Blood sugar level after administration, average", "setting": "blood sugar level; [5]", "value": "129.7 ± 9.1", "unit": "mg/dL"},
      {"measurement": "Effectiveness in reducing blood sugar level, average", "setting": "blood sugar level; [5]", "value": 86.2, "unit": "%"},
      {"measurement": "Blood sugar level before administration, average", "setting": "blood sugar level; average of 3 patients, baseline", "value": "182 ± 13.5", "unit": "mg/dL"},
      {"measurement": "Blood sugar level after administration", "setting": "blood sugar level; [6]", "value": 120, "unit": "mg/dL"},
      {"measurement": "Effectiveness in reducing blood sugar level", "setting": "blood sugar level; [6]", "value": 100, "unit": "%"},
      {"measurement": "Blood sugar level before administration", "setting": "blood sugar level; person fourteen, baseline", "value": 168, "unit": "mg/dL"},
      {"measurement": "Blood sugar level after administration", "setting": "blood sugar level; [7]", "value": 138, "unit": "mg/dL"},
      {"measurement": "Effectiveness in reducing blood sugar level", "setting": "blood sugar level; [7]", "value": 76, "unit": "%"},
      {"measurement": "Blood sugar level before administration", "setting": "blood sugar level; person nineteen, baseline", "value": 195, "unit": "mg/dL"},
      {"measurement": "Blood sugar level after administration", "setting": "blood sugar level; [8]", "value": 131, "unit": "mg/dL"},
      {"measurement": "Effectiveness in reducing blood sugar level", "setting": "blood sugar level; [8]", "value": 82.5, "unit": "%"},
      {"measurement": "Blood sugar level before administration", "setting": "blood sugar level; person seven, baseline", "value": 183, "unit": "mg/dL"},
      {"measurement": "Calcium level in serum", "setting": "calcium level in serum [3]; after 2 hours", "value": "12.5 ± 0.5", "unit": "mg/dL"},
      {"measurement": "Calcium level in serum", "setting": "calcium level in serum [3]; after 5 hours", "value": "10.5 ± 0.5", "unit": "mg/dL"},
      {"measurement": "Magnesium level in serum after administration", "setting": "magnesium level in serum; patient A, 5 µg/day", "value": 2.0, "unit": "mg/dL"},
      {"measurement": "Magnesium level in serum before administration", "setting": "magnesium level in serum; patient A", "value": 4.2, "unit": "mg/dL"},
      {"measurement": "Magnesium level in serum after administration", "setting": "magnesium level in serum; patient B, 2 µg/day", "value": 2.1, "unit": "mg/dL"},
      {"measurement": "Magnesium level in serum before administration", "setting": "magnesium level in serum; patient B", "value": 4.0, "unit": "mg/dL"},
      {"measurement": "Magnesium level in serum after administration", "setting": "magnesium level in serum; patient C, 5 µg/day", "value": 1.9, "unit": "mg/dL"},
      {"measurement": "Magnesium level in serum before administration", "setting": "magnesium level in serum; patient C", "value": 4.3, "unit": "mg/dL"},
      {"measurement": "Calcium level in serum after one week of transplantation", "setting": "calcium level in serum [4]; 20 µg/kg/day oral, 7 days", "value": "11.2 ± 0.6", "unit": "mg/dL"},
      {"measurement": "Calcium level in serum before transplantation", "setting": "calcium level in serum [4]; before transplantation (baseline)", "value": "10.5 ± 0.3", "unit": "mg/dL"}
    ]}
  ]
}
